The values below come from patent US20050245537A1, “Use of compounds having ccr antagonism” (priority 2002, published 2005).

In this assay the test system is Mouse Skin Graft Rejection Model. The assay is described as follows: Mouse skin graft rejection model. Type of assay: in vivo. The source says:
Effects of a Compound with Respect to a Mouse Skin Graft Rejection Model

Regarding `Cc1ccc(-c2ccc3c(c2)C=C(C(=O)Nc2ccc(C[N+](C)(C)C4CCOCC4)cc2)CCC3)cc1.[Cl-]` [N,N-dimethyl-N-(4-[[[2-(4-methylphenyl)-6,7-dihydro-5H-benzocyclohepten-8-yl]carbonyl]amino]benzyl]tetrahydro-2H-pyran-4-ammonium chloride], the “graft rejection suppression effect” value (10 mg/kg subdermally once a day, P<0.05 vs. control, log-rank test) is reported as “significant”. In addition, the “number of days of skin graft life” value (donor mouse B6-CH-2^bm12 abdominal skin grafted onto recipient mouse (B6/129), 10 mg/kg subdermally once a day from the day of grafting, n=7, control group 13.0±2.8 days (n=6)) is 19.6 ± 4.4 days.
